Experimental data published in ChEMBL document CHEMBL3608238, “Coronaridine, an iboga type alkaloid from Tabernaemontana divaricata, inhibits the Wnt signaling pathway by decreasing β-catenin mRNA expression” (Bioorg Med Chem Lett, 2015).
pIC50: −log10 of the molar value. Activity calls are given as the source filed them. The rule behind the calls is not given here.

How the values were obtained:
[1] = (§1) Inhibition of Wnt/beta-catenin in human STF/293 cells assessed as inhibition of TCF/beta catenin transcription after 24 hrs by SuperTOPFlash reporter gene assay; type: cell-based; conditions: STF/293, 24 h
STF/293 = test: as §1; type: cell-based
HEK-293T [2] = test: Inhibition of Wnt/beta-catenin in HEK293T cells assessed as inhibition of TCF/beta catenin transcription at 5 to 20 uM after 24 hrs by SuperFOPFlash reporter gene assay; type: cell-based; conditions: Homo sapiens
HEK293 = test: Cytotoxicity against HEK293 cells assessed as cell viability after 24 hrs by fluorescence assay; type: cell-based; conditions: Homo sapiens, HEK293, 24 h
HEK-293T [3] = test: Cytotoxicity against HEK293T cells assessed as cell viability after 24 hrs by fluorescence assay; type: cell-based; conditions: Homo sapiens
RKO = test: Cytotoxicity against Wnt-independent human RKO cells assessed as cell viability after 24 hrs by fluorescence assay; type: cell-based
SW480 [4] = test: Cytotoxicity against Wnt-dependent human SW480 cells assessed as cell viability after 24 hrs by fluorescence assay; type: functional, cell-based; conditions: SW480, 24 h
HCT-116 = test: Cytotoxicity against Wnt-dependent human HCT116 cells assessed as cell viability after 24 hrs by fluorescence assay; type: functional, cell-based; conditions: HCT-116, 24 h
[5] = Cytotoxicity against Wnt-dependent human DLD1 cells assessed as cell viability after 24 hrs by fluorescence assay; type: functional, cell-based; conditions: DLD-1, 24 h
SW480 [6] = test: Inhibition of Wnt/beta-catenin in human SW480 cells assessed as decrease in cytosolic beta-catenin level at 10 to 40 uM after 24 hrs by Western blot analysis; type: cell-based
SW480 [7] = test: Inhibition of Wnt/beta-catenin in human SW480 cells assessed as decrease in nuclear beta-catenin level at 10 to 40 uM after 24 hrs by Western blot analysis; type: cell-based
SW480 [8] = test: Inhibition of Wnt/beta-catenin in human SW480 cells assessed as beta-catenin phosphorylation at Ser33/Ser37/Thr40 at 10 to 40 uM after 24 hrs by Western blot analysis; type: cell-based
SW480 [9] = test: Inhibition of Wnt/beta-catenin in human SW480 cells assessed as beta-catenin phosphorylation at Ser45 at 10 to 40 uM after 24 hrs by Western blot analysis; type: cell-based
SW480 [10] = test: Effect on GSK3beta expression in human SW480 cells at 10 to 40 uM after 24 hrs by Western blot analysis; type: functional, cell-based
SW480 [11] = test: Effect on CK1alpha expression in human SW480 cells at 10 to 40 uM after 24 hrs by Western blot analysis; type: functional, cell-based
SW480 [12] = test: Inhibition of Wnt/beta-catenin in proteasome inhibitor MG132 pretreated human SW480 cells assessed as decrease in beta-catenin level at 40 uM co-treated with MG132 for 12 hrs by Western blot analysis; type: cell-based
SW480 [13] = test: Inhibition of Wnt/beta-catenin in human SW480 cells assessed as decrease in beta-catenin mRNA level at 40 uM by real time RT-PCR analysis; type: cell-based
HEK-293T [14] = test: Inhibition of Wnt/beta-catenin in HEK293T cells assessed as inhibition of TCF/beta catenin transcription at 10 to 40 uM after 24 hrs by SuperFOPFlash reporter gene assay; type: cell-based; conditions: Homo sapiens

SMILES | pIC50 [1] | inhibition (STF/293) | inhibition (HEK-293T [2]) | pIC50 (HEK293) | pIC50 (HEK-293T [3]) | pIC50 (RKO) | pIC50 (SW480 [4]) | pIC50 (HCT-116) | pIC50 [5] | inhibition (SW480 [6]) | inhibition (SW480 [7]) | inhibition (SW480 [8]) | inhibition (SW480 [9]) | Activity (SW480 [10]) | Activity (SW480 [11]) | inhibition (SW480 [12]) | inhibition (SW480 [13]) | inhibition (HEK-293T [14])
CC[C@H]1C[C@@H]2CN3CC[C@]4(O)C(=Nc5ccccc54)[C@](C(=O)OC)(C2)[C@H]13 [CORONARIDINE HYDROXYINDOLENINE] | 5.14 | Dose-dependent effect | Active | < 4.40 | < 4.40 | < 4.40 | < 4.40 | < 4.40 | < 4.40 | – | – | – | – | – | – | – | – | –
CC[C@H]1C[C@@H]2CN3CCc4c([nH]c5ccccc45)[C@](C(=O)OC)(C2)[C@H]13 [CORONARIDINE] | 5.24 | Dose-dependent effect | Active | 4.50 | < 4.40 | < 4.40 | 4.98 | 4.94 | 4.61 | Active | Active | inactive | inactive | inactive | inactive | Active | Active | –
CC[C@H]1C[C@@H]2CN3CCc4c([nH]c5cc(OC)ccc45)[C@](C(=O)OC)(C2)[C@H]13 [ISOVOACANGINE] | 5.22 | Dose-dependent effect | Active | 4.45 | < 4.40 | < 4.40 | 4.95 | 4.61 | < 4.40 | – | – | – | – | – | – | – | – | –
CC[C@H]1C[C@@H]2CN3CCc4c([nH]c5ccc(OC)cc45)[C@](C(=O)OC)(C2)[C@H]13 [VOACANGINE] | 4.94 | Dose-dependent effect | – | < 4.40 | < 4.40 | < 4.40 | < 4.40 | < 4.40 | < 4.40 | – | – | – | – | – | – | – | – | inactive
